Laboratory results published in publication PMC3531552 (Cancer research, 2011).

Biological target: T1, ABCG2 (Homo sapiens, UniProt Q9UNQ0)
T1 sequence (Q9UNQ0 1-655): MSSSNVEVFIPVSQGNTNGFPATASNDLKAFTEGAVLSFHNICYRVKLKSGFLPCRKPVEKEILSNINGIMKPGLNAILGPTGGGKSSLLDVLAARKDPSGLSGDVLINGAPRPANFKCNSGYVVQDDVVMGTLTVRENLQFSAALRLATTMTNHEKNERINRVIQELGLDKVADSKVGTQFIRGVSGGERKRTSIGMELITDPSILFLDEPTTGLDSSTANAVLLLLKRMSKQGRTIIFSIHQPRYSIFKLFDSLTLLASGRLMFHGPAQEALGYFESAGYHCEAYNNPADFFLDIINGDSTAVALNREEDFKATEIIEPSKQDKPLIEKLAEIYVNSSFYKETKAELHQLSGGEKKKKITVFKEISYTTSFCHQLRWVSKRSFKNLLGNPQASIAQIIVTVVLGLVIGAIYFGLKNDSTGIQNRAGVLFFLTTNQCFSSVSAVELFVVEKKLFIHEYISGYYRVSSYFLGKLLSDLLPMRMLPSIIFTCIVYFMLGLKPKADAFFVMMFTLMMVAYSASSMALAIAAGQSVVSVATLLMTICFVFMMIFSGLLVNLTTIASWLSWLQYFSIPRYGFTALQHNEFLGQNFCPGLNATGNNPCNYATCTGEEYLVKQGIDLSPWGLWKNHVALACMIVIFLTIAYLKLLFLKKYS
Test: inhibition of [3H]methotrexate transport in Sf9 membrane vesicles
Assay type: biochemical

Compound Nc1nc(Cl)nc2c1ncn2[C@@H]1O[C@H](CO)[C@@H](O)[C@@H]1F [clofarabine] has an IC50 of ~14 µM.
